Measurements as given in ChEMBL document CHEMBL3817731, “Synthesis and investigation of novel benzimidazole derivatives as antifungal agents” (Bioorg Med Chem, 2016).
Values after ≈ are worked out from the molar mass of the structure shown.

Key:
Type in all cases: functional
Candida albicans [1] = assay: Antifungal activity against Candida albicans ATCC MYA-90819 after 48 hrs by CLSI M27-A3 method; conditions: ATCC MYA-90819, 48 h
Candida albicans [2] = assay: Antifungal activity against Candida albicans ATCC 10231 after 48 hrs by CLSI M27-A3 method; conditions: ATCC 10231, 48 h
Aspergillus flavus = assay: Antifungal activity against Aspergillus flavus ATCC MYA-3631 after 48 hrs by CLSI M38-A2 method; conditions: ATCC MYA-3631, 48 h
Candida albicans [3] = assay: Antifungal activity against Candida albicans ATCC MYA-1237 after 48 hrs by CLSI M27-A3 method; conditions: ATCC MYA-1237, 48 h
Candida albicans [4] = assay: Antifungal activity against Candida albicans ATCC MYA-1003 after 48 hrs by CLSI M27-A3 method; conditions: ATCC MYA-1003, 48 h
Aspergillus nidulans = assay: Antifungal activity against Aspergillus nidulans ATCC 38163 after 48 hrs by CLSI M38-A2 method; conditions: ATCC 38163, 48 h
Pichia kudriavzevii = assay: Antifungal activity against Candida krusei ATCC 6258 after 48 hrs by CLSI M27-A3 method; conditions: ATCC 6258, 48 h
Candida albicans [5] = assay: Antifungal activity against Candida albicans ATCC MYA-2310 after 48 hrs by CLSI M27-A3 method; conditions: ATCC MYA-2310, 48 h
Candida parapsilosis = assay: Antifungal activity against Candida parapsilosis ATCC 22019 after 48 hrs by CLSI M27-A3 method; conditions: Lodderomyces parapsilosis, ATCC 22019, 48 h
Candida albicans [6] = assay: Antifungal activity against Candida albicans ATCC MYA-2876 after 48 hrs by CLSI M27-A3 method; conditions: ATCC MYA-2876, 48 h
Nakaseomyces glabratus = assay: Antifungal activity against Candida glabrata ATCC 2001 after 48 hrs by CLSI M27-A3 method; conditions: CBS 138, 48 h
Aspergillus terreus = assay: Antifungal activity against Aspergillus terreus ATCC MYA3633 after 48 hrs by CLSI M38-A2 method; conditions: ATCC MYA3633, 48 h
Candida albicans [7] = assay: Antifungal activity against Candida albicans ATCC 64124 after 48 hrs by CLSI M27-A3 method; conditions: ATCC 64124, 48 h

SMILES	MIC (Candida albicans [1]) [µg/mL]	MIC (Candida albicans [2]) [µg/mL]	MIC (Aspergillus flavus) [µg/mL]	MIC (Candida albicans [3]) [µg/mL]	MIC (Candida albicans [4]) [µg/mL]	MIC (Aspergillus nidulans) [µg/mL]	MIC (Pichia kudriavzevii) [µg/mL]	MIC (Candida albicans [5]) [µg/mL]	MIC (Candida parapsilosis) [µg/mL]	MIC (Candida albicans [6]) [µg/mL]	MIC (Nakaseomyces glabratus) [µg/mL]	MIC (Aspergillus terreus) [µg/mL]	MIC (Candida albicans [7]) [µg/mL]
CN1CCN(c2ccc3nc(-c4ccc5nc(-c6ccc(OCCO)cc6)[nH]c5c4)[nH]c3c2)CC1	> 31.2	> 31.2	31.2 (≈ 66.6 µM)	> 31.2	31.2 (≈ 66.6 µM)	15.6 (≈ 33.3 µM)	7.8 (≈ 16.6 µM)	31.2 (≈ 66.6 µM)	15.6 (≈ 33.3 µM)	31.2 (≈ 66.6 µM)	31.2 (≈ 66.6 µM)	15.6 (≈ 33.3 µM)	> 31.2
CCCCCN1CCN(c2ccc3nc(-c4ccc5nc(-c6ccc(OCC)cc6)[nH]c5c4)[nH]c3c2)CC1	> 31.2	> 31.2	> 31.2	> 31.2	> 31.2	> 31.2	> 31.2	> 31.2	> 31.2	> 31.2	> 31.2	> 31.2	> 31.2
CCCCCCCCCCCCOc1ccc(-c2nc3ccc(-c4nc5ccc(N6CCN(C)CC6)cc5[nH]4)cc3[nH]2)cc1	> 31.2	> 31.2	> 31.2	> 31.2	> 31.2	> 31.2	> 31.2	> 31.2	> 31.2	> 31.2	> 31.2	> 31.2	> 31.2
CCCCCN1CCN(c2ccc3nc(-c4ccc5nc(-c6ccc(OC)cc6)[nH]c5c4)[nH]c3c2)CC1	> 31.2	> 31.2	> 31.2	> 31.2	> 31.2	> 31.2	> 31.2	> 31.2	15.6 (≈ 31.5 µM)	> 31.2	> 31.2	> 31.2	> 31.2
C#CCOc1ccc(-c2nc3ccc(N4CCN(C)CC4)cc3[nH]2)cc1	> 31.2	> 31.2	> 31.2	> 31.2	> 31.2	> 31.2	> 31.2	> 31.2	> 31.2	> 31.2	> 31.2	> 31.2	> 31.2
CN1CCN(c2ccc3nc(-c4ccc5nc(-c6ccc(OCCOCCO)cc6)[nH]c5c4)[nH]c3c2)CC1	> 31.2	> 31.2	> 31.2	> 31.2	> 31.2	> 31.2	7.8 (≈ 15.2 µM)	> 31.2	31.2 (≈ 60.9 µM)	> 31.2	> 31.2	> 31.2	> 31.2
CCCN1CCN(c2ccc3nc(-c4ccc5nc(-c6ccc(OCC)cc6)[nH]c5c4)[nH]c3c2)CC1	> 31.2	> 31.2	> 31.2	> 31.2	> 31.2	> 31.2	15.6 (≈ 32.5 µM)	> 31.2	> 31.2	> 31.2	> 31.2	> 31.2	> 31.2
OC(Cn1cncn1)(Cn1cncn1)c1ccc(F)cc1F [FLUCONAZOLE]	> 125							> 125	1.95 (≈ 6.37 µM)	15.6 (≈ 50.9 µM)	> 31.2		> 125
C#CCOc1ccc(-c2nc3ccc(-c4nc5ccc(-c6nc7ccc(N8CCN(C)CC8)cc7[nH]6)cc5[nH]4)cc3[nH]2)cc1	> 31.2	> 31.2	> 31.2	> 31.2	> 31.2	31.2 (≈ 53.9 µM)	> 31.2	> 31.2	> 31.2	> 31.2	31.2 (≈ 53.9 µM)	31.2 (≈ 53.9 µM)	> 31.2
CCOc1ccc(-c2nc3ccc(-c4nc5ccc(N6CCN(CC)CC6)cc5[nH]4)cc3[nH]2)cc1	15.6 (≈ 33.4 µM)	15.6 (≈ 33.4 µM)	> 31.2	15.6 (≈ 33.4 µM)	> 31.2	15.6 (≈ 33.4 µM)	15.6 (≈ 33.4 µM)	15.6 (≈ 33.4 µM)	3.9 (≈ 8.36 µM)	15.6 (≈ 33.4 µM)	31.2 (≈ 66.9 µM)	15.6 (≈ 33.4 µM)	15.6 (≈ 33.4 µM)
CCCN1CCN(c2ccc3nc(-c4ccc5nc(-c6ccc(O)cc6)[nH]c5c4)[nH]c3c2)CC1	31.2 (≈ 68.9 µM)	31.2 (≈ 68.9 µM)	> 31.2	31.2 (≈ 68.9 µM)	31.2 (≈ 68.9 µM)	7.8 (≈ 17.2 µM)	31.2 (≈ 68.9 µM)	31.2 (≈ 68.9 µM)	7.8 (≈ 17.2 µM)	31.2 (≈ 68.9 µM)	7.8 (≈ 17.2 µM)	15.6 (≈ 34.5 µM)	31.2 (≈ 68.9 µM)
C[C@@H](c1ncncc1F)[C@](O)(Cn1cncn1)c1ccc(F)cc1F [VORICONAZOLE]	1.95 (≈ 5.58 µM)			7.8 (≈ 22.3 µM)	1.95 (≈ 5.58 µM)	0.03 (≈ 0.0859 µM)	0.12 (≈ 0.344 µM)	0.975 (≈ 2.79 µM)	< 0.03	1.95 (≈ 5.58 µM)		0.12 (≈ 0.344 µM)	3.9 (≈ 11.2 µM)
C#CCOc1ccc(-c2nc3ccc(-c4nc5ccc(N6CCN(CCC)CC6)cc5[nH]4)cc3[nH]2)cc1	> 31.2	> 31.2	> 31.2	> 31.2	> 31.2	> 31.2	15.6 (≈ 31.8 µM)	> 31.2	> 31.2	> 31.2	> 31.2	> 31.2	> 31.2
CC[C@@H]([C@H](C)O)n1ncn(-c2ccc(N3CCN(c4ccc(OC[C@@H]5CO[C@@](Cn6cncn6)(c6ccc(F)cc6F)C5)cc4)CC3)cc2)c1=O [POSACONAZOLE]	31.2 (≈ 44.5 µM)	0.5 (≈ 0.713 µM)	0.24 (≈ 0.342 µM)	15.6 (≈ 22.3 µM)	15.6 (≈ 22.3 µM)	0.195 (≈ 0.278 µM)	0.06 (≈ 0.0856 µM)	31.2 (≈ 44.5 µM)	< 0.03	7.8 (≈ 11.1 µM)	0.12 (≈ 0.171 µM)	0.48 (≈ 0.685 µM)	> 62.5
CCC(C)n1ncn(-c2ccc(N3CCN(c4ccc(OCC5COC(Cn6cncn6)(c6ccc(Cl)cc6Cl)O5)cc4)CC3)cc2)c1=O (stereo not given) [ITRACONAZOLE]	31.2 (≈ 44.2 µM)	0.5 (≈ 0.709 µM)	0.48 (≈ 0.68 µM)	31.2 (≈ 44.2 µM)	31.2 (≈ 44.2 µM)	0.195 (≈ 0.276 µM)	0.48 (≈ 0.68 µM)	31.2 (≈ 44.2 µM)	0.12 (≈ 0.17 µM)	7.8 (≈ 11.1 µM)		0.975 (≈ 1.38 µM)	> 62.5
CCCN1CCN(c2ccc3nc(-c4ccc5nc(-c6ccc(OC)cc6)[nH]c5c4)[nH]c3c2)CC1	> 31.2	> 31.2	> 31.2	> 31.2	> 31.2	> 31.2	7.8 (≈ 16.7 µM)	> 31.2	31.2 (≈ 66.9 µM)	> 31.2	> 31.2	> 31.2	> 31.2
CCN1CCN(c2ccc3nc(-c4ccc5nc(-c6ccc(OC)cc6)[nH]c5c4)[nH]c3c2)CC1	> 31.2	> 31.2	> 31.2	> 31.2	> 31.2	> 31.2	31.2 (≈ 68.9 µM)	> 31.2	7.8 (≈ 17.2 µM)	> 31.2	7.8 (≈ 17.2 µM)	> 31.2	> 31.2
